Results as given in US3946040A, “Propynyl benzyl ethers” (Hoffmann-La Roche Inc., priority 1973, dated 1976).

Assays:
Type in all cases: in vivo
black bean aphids = assay: Aphids: seedling of the field bean with black bean aphids sprayed; dead and surviving aphids counted; details: stated logarithmically (3 = 10^^-3 g/cm^3); for LD50 concentration based on insect-poison: I:P 100:0; for LD50 concentration (refers to the propynyl benzyl ether itself): I:P 0:100, ether alone
Protocol: For each test, one seedling of the field bean with ca 50-100 black bean aphids is sprayed with a solution of the active ingredient(s) in acetone or an aqueous spray-wash of the active ingredient(s). The seedlings are individually placed in tubes in water. After 24 and 48 hours, the dead and surviving aphids are counted and the activity calculated in %.

flies = assay: Flies: placed in sprayed petri dishes; dead or crippled flies counted; details: after 24 hours, stated logarithmically (3 = 10^^-3 g/cm^3); for LD50 concentration based on insect-poison: I:P 100:0
Protocol: For each test, two petri dishes are sprayed with a solution of the active ingredient(s) in acetone or an aqueous spray-wash of the active ingredient(s). The dosage for each treated surface is 10^^-5 g/cm^2 = 1 kg/ha. After 2-3 hours, 10 flies aged 4-5 days are placed in each petri dish. After 1, 3 and 24 hours, the flies which are dead or crippled are counted.

spider-mites = assay: Spider-mites on sprayed leaf discs, assessment based on the mortality of the spider-mites (W); details: stated logarithmically (3 = 10^^-3 g/cm^3); for LD50 concentration based on insect-poison (W, mortality of the spider-mites): I:P 100:0; for LD50 concentration (W, mortality of the spider-mites; refers to the propynyl benzyl ether itself): I:P 0:100, ether alone
Protocol: (§1) For each test, three beam leaf discs each with a 2-day infection and with 20-40 spider-mites and eggs are sprayed with a solution of the active ingredient(s) in acetone or an aqueous spray-wash of the active ingredient(s). The dosage for each treated surface is 10^^-5 g/cm^2 = 1 kg/ha. After 2 days, the discs are assessed for dead spider-mites and after 6 days for dead spider-mites and killed eggs. (Assessment scheme: from 0-5, where 0 = 0% and 5 = 100% mortality).
W = assessment based on the mortality of the spider-mites;

spider-mite eggs = assay: Spider-mites on sprayed leaf discs, assessment based on the mortality of the eggs (O); details: stated logarithmically (3 = 10^^-3 g/cm^3), 8640 min; for LD50 concentration (O, mortality of the eggs; refers to the propynyl benzyl ether itself): I:P 0:100, ether alone
Protocol: as §1
O = assessment based on the mortality of the eggs.

[1] = Malathion group, I:P 0:100, ether alone
[2] = Methoxychlor group, I:P 0:100, ether alone
[3] = Sevin group, I:P 0:100, ether alone

SMILES: C=CCC1=C(C)C(OC(=O)C2C(C=C(C)C)C2(C)C)CC1=O (mixture of isomers) [Allethrin, 2-allyl-4-hydroxy-3-methyl-2-cyclopenten-1-one esterified with a mixture of cis and trans 2,2-dimethyl-3-(2-methylpropenyl)-cyclopropanecarboxylic acid, reference compound]
- LD50 concentration based on insect-poison (black bean aphids; Allethrin alone): 5.0
- LD50 concentration based on insect-poison (flies; Allethrin alone): 5.5
- LD50 concentration based on insect-poison (W, mortality of the spider-mites) (spider-mites; Allethrin alone): 3.4
- LD50 concentration based on insect-poison (O, mortality of the eggs) (spider-mite eggs; Allethrin alone, I:P 100:0): < 3

SMILES: CCOC(=O)CC(SP(=S)(OC)OC)C(=O)OCC (stereo not drawn) [Malathion, S-[1,2-bis-(carbethoxy)-ethyl]-0,0-dimethyl-dithiophosphate, reference compound]
- LD50 concentration based on insect-poison (black bean aphids; Malathion alone): 5.1
- LD50 concentration based on insect-poison (flies; Malathion alone): 5.1
- LD50 concentration based on insect-poison (W, mortality of the spider-mites) (spider-mites; Malathion alone): < 4

SMILES: C#CCOCc1ccc2c(c1)OCO2 [A, 3,4-(methylenedioxy)-α-(2-propynyloxy)-toluene]
- LD50 concentration (refers to the propynyl benzyl ether itself) (black bean aphids; Allethrin group): 3.0
- LD50 concentration (refers to the propynyl benzyl ether itself) (black bean aphids; Methoxychlor group): 3.0
- LD50 concentration (refers to the propynyl benzyl ether itself) (flies; [1]): > 3.5
- LD50 concentration (refers to the propynyl benzyl ether itself) (flies; [2]): > 3.5
- LD50 concentration (refers to the propynyl benzyl ether itself) (flies; [3]): 3.5
- LD50 concentration (W, mortality of the spider-mites; refers to the propynyl benzyl ether itself) (spider-mites; Sevin group): < 2

SMILES: C#CCOCc1ccc(OC)c(OC)c1 [B, 3,4-dimethoxy-α-(2-propynyloxy)-toluene]
- LD50 concentration (refers to the propynyl benzyl ether itself) (black bean aphids; Allethrin group): 3.0
- LD50 concentration (refers to the propynyl benzyl ether itself) (black bean aphids; Malathion group): 3.3
- LD50 concentration (refers to the propynyl benzyl ether itself) (black bean aphids; Methoxychlor group): 3.3
- LD50 concentration (refers to the propynyl benzyl ether itself) (flies; Allethrin group, I:P printed 0:10, ether alone): 3.3
- LD50 concentration (refers to the propynyl benzyl ether itself) (flies; [1]): 3.3
- LD50 concentration (refers to the propynyl benzyl ether itself) (flies; [2]): 3.3
- LD50 concentration (refers to the propynyl benzyl ether itself) (flies; [3]): 3.5
- LD50 concentration (W, mortality of the spider-mites; refers to the propynyl benzyl ether itself) (spider-mites; Allethrin group): 3.0
- LD50 concentration (W, mortality of the spider-mites; refers to the propynyl benzyl ether itself) (spider-mites; Malathion group): 3.0
- LD50 concentration (W, mortality of the spider-mites; refers to the propynyl benzyl ether itself) (spider-mites; Methoxychlor group): 3.0
- LD50 concentration (W, mortality of the spider-mites; refers to the propynyl benzyl ether itself) (spider-mites; Sevin group): 3.0
- LD50 concentration (O, mortality of the eggs; refers to the propynyl benzyl ether itself) (spider-mite eggs; Allethrin group): 2.7
- LD50 concentration (O, mortality of the eggs; refers to the propynyl benzyl ether itself) (spider-mite eggs; Methoxychlor group): 2.7
- LD50 concentration (O, mortality of the eggs; refers to the propynyl benzyl ether itself) (spider-mite eggs; Sevin group): 2.7
